Measured values taken from ChEMBL document CHEMBL4392878, “Guaiane-Type Sesquiterpenoids from the Roots of Daphne genkwa and Evaluation of Their Neuroprotective Effects” (2019).

Legend:
Format in all cases: functional
SH-SY5Y [1] = test: Neuroprotective activity in human SH-SY5Y cells assessed as reduction in H2O2-induced apoptosis by measuring necrotic cells level at 12.5 uM by annexin V-FITC and propidium iodide staining based flow cytometry (reference value: 6.69%); parameters: scale not given: the % may be the effect or the level left
SH-SY5Y [2] = test: Neuroprotective activity in human SH-SY5Y cells assessed as reduction in H2O2-induced apoptosis by measuring viable cells level at 12.5 uM by annexin V-FITC and propidium iodide staining based flow cytometry (reference value: 76.7%)
SH-SY5Y [3] = test: Neuroprotective activity in human SH-SY5Y cells assessed as reduction in H2O2-induced apoptosis by measuring early apoptotic cells level at 12.5 uM by annexin V-FITC and propidium iodide staining based flow cytometry (reference value: 11.3%); parameters: scale not given: the % may be the effect or the level left
SH-SY5Y [4] = test: Neuroprotective activity in human SH-SY5Y cells assessed as reduction in H2O2-induced apoptosis by measuring late apoptotic cells level at 12.5 uM by annexin V-FITC and propidium iodide staining based flow cytometry (reference value: 5.26%); parameters: scale not given: the % may be the effect or the level left
SH-SY5Y [5] = test: Neuroprotective activity in human SH-SY5Y cells assessed as reduction in H2O2-induced cell damage by measuring cell viability level at 12.5 uM by MTT assay (reference value: 67.95%)
SH-SY5Y [6] = test: Neuroprotective activity in human SH-SY5Y cells assessed as reduction in H2O2-induced cell damage by measuring cell viability level at 50 uM by MTT assay (reference value: 67.95%)

## CC1=C(C[C@@H]2/C(=C(/C)CO)CC[C@@H]2C)C(=O)OC1
SH-SY5Y [1]
  Activity: 12.1%
SH-SY5Y [2]
  Activity: 79.2%
SH-SY5Y [3]
  Activity: 5.41%
SH-SY5Y [4]
  Activity: 3.29%
SH-SY5Y [5]
  Activity: 79.94%

## CC1=C2CC[C@H](C)[C@@H]2C[C@H]2C(=O)[C@@H]1OC[C@@]2(O)CO
SH-SY5Y [1]
  Activity: 5.41%
SH-SY5Y [2]
  Activity: 87.7%
SH-SY5Y [3]
  Activity: 4.19%
SH-SY5Y [4]
  Activity: 2.67%
SH-SY5Y [5]
  Activity: 79.34%

## Cc1c(C)c2c(c(C)c1O)CCC(C)(C(=O)O)O2 (stereo unspecified) [TROLOX]
SH-SY5Y [6]
  Activity: 78.65%

## CC1=C[C@@]2(O)OC(=O)C(C)=C2C[C@H]2[C@@H](C)CC[C@@]12O
SH-SY5Y [1]
  Activity: 5.37%
SH-SY5Y [2]
  Activity: 87.7%
SH-SY5Y [3]
  Activity: 4.25%
SH-SY5Y [4]
  Activity: 2.7%
SH-SY5Y [5]
  Activity: 75.64%
